Test results reported in patent publication US6933295B2, “Substituted isoindoles and the use thereof” (Bayer Aktiengesellschaft, priority 2001, dated 2005).

Row | melting point | Structure (SMILES)
1 | 88 °C | CC(C#N)Oc1cccc(CN2C(=O)c3cccc(NC(=O)c4ccc(Cl)s4)c3C2=O)c1 (centres unmarked) [Example 7, 5-Chloro-N-{2-[3-(1-cyanoethoxy)benzyl]-1,3-dioxo-2,3-dihydro-1H-isoindol-4-yl}-2-thiophenecarboxamide]
2 | 199 °C | N#CCOc1ccc(CN2C(=O)c3cccc(NC(=O)c4ccc(Cl)s4)c3C2=O)cc1 [Example 6, 5-Chloro-N-{2-[4-(cyanomethoxy)benzyl]-1,3-dioxo-2,3-dihydro-1H-isoindol-4-yl}-2-thiophenecarboxamide]
